Measurements reported in patent US9889144B2, “Abiraterone acetate formulation and methods of use” (iCeutica Inc., priority 2013, dated 2018).

Tests used:
[1] = Abiraterone acetate stability with and without milling, total impurities by HPLC; type: physicochemical; details: 80° C., 4 hrs
From the text: The impurity growth in the DPI and tablets containing fine particle abiraterone acetate is due to oxidative degradation of abiraterone acetate. […] The faster degradation in tablets containing fine particle abiraterone acetate could arise from a number of sources, including, but not limited to: greater surface area of the API, higher proportion of excipient relative to the API, and differences in excipients.

[2] = cited from earlier work

Total impurities by HPLC ([1]; Milling none): 0.23 % AUC | Total impurities by HPLC ([1]; SPEX shaker mill): 0.17 % AUC
Structure (SMILES): CC(=O)O[C@H]1CC[C@@]2(C)C(=CC[C@@H]3[C@@H]2CC[C@]2(C)C(c4cccnc4)=CC[C@@H]32)C1 [Abiraterone Acetate (API), 17-(3-Pyridyl) androsta-5, acetate]
water solubility [2]: poorly water soluble
